Source: PubChem BioAssay (NCI)
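Briefly, cells in 96-well plates were exposed to five compound concentrations for 48 h, and endpoints were estimated by linear interpolation. GI50: concentration for 50% inhibition of growth. TGI is the concentration that stops growth completely.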

Assays:
Assay in all cases: NCI anticancer screen, dose series, 48 h
A549 NSCLC = tested on: A549 NSCLC
CAKI-1 renal = tested on: CAKI-1 renal
CCRF-CEM leukemia = tested on: CCRF-CEM leukemia
HOP-62 NSCLC = tested on: HOP-62 NSCLC
KM12 colon = tested on: KM12 colon
RPMI-8226 leukemia = tested on: RPMI-8226 leukemia
SF-268 CNS = tested on: SF-268 CNS
SNB-19 CNS = tested on: SNB-19 CNS
U251 CNS = tested on: U251 CNS
UACC-257 melanoma = tested on: UACC-257 melanoma

SMILES | TGI (A549 NSCLC) [µM] | TGI (CAKI-1 renal) [µM] | TGI (CCRF-CEM leukemia) [µM] | TGI (HOP-62 NSCLC) [µM] | TGI (KM12 colon) [µM] | TGI (RPMI-8226 leukemia) [µM] | TGI (SF-268 CNS) [µM] | TGI (SNB-19 CNS) [µM] | TGI (U251 CNS) [µM] | TGI (UACC-257 melanoma) [µM] | GI50 (A549 NSCLC) [µM] | GI50 (CAKI-1 renal) [µM] | GI50 (CCRF-CEM leukemia) [µM] | GI50 (HOP-62 NSCLC) [µM] | GI50 (KM12 colon) [µM] | GI50 (RPMI-8226 leukemia) [µM] | GI50 (SF-268 CNS) [µM] | GI50 (SNB-19 CNS) [µM] | GI50 (U251 CNS) [µM] | GI50 (UACC-257 melanoma) [µM]
NC(N)=NS(=O)(=O)c1ccc(NC(=O)c2cccc3c(Nc4ccc(S(N)(=O)=O)cc4)c4ccccc4nc23)cc1 | > 100 | > 100 | > 100 | > 100 | > 100 | > 100 | > 100 | > 100 | > 100 | > 100 | – | – | – | – | – | – | – | – | – | –
CCCCCCCCCCN=C(c1ccc(N(C)C)cc1)c1ccc(N(C)C)cc1 | > 77.6 | 64.3 | > 77.3 | 31.8 | > 75.8 | 16.3 | 67.9 | > 76 | 33.2 | 66.2 | 2.53 | 1.43 | 1.78 | 1.06 | 0.414 | 0.673 | 3.4 | 1.06 | 0.579 | 16.5
CC1CCCc2c1nn(C(=O)/C=C(\N)c1ccccc1)c2N (stereo not given) | > 100 | 15.4 | > 100 | > 100 | > 100 | > 100 | > 100 | > 100 | > 100 | > 100 | 9.06 | 4.11 | 6.8 | 8.49 | 5.97 | 9.13 | 9.61 | 25.2 | 5.06 | 25.6
